# Measurements published in patent publication US20070173539A1, “Use of malonomicin and analogs in fungicidal applications” (priority 2006, published 2007).
# How the values were obtained:
# Type in all cases: in vivo
# [1] = test system: Erysiphe graminis f. sp. tritici (ERYSGT); assay: Powdery Mildew of Wheat one day protectant (1DP); conditions: wheat (Monon), sprayed to runoff, rate 200 ppm
# Method: Final treatment volumes were obtained by adding 0.1 percent aqueous Ethomeen T25 or 0.1 percent aqueous Spraymate X77+0.1 percent wt./vol. ammonium sulfate^+. Powdery Mildew of Wheat (Erysiphe graminis f. sp. tritici-[…]) Wheat (cultivar Monon) was grown in plastic pots (6.2 cm×8.75 cm) containing 50 percent mineral soil, 50 percent Metro-Mix 360 (W.R Grace and Co.) until the seedlings were 10-20 cm tall. These plants were then sprayed to runoff with the test compound at a rate of 200 ppm. After 24 hours the test plants were inoculated with Erysiphe graminis f. sp. tritici ([…]) by dusting spores from stock plants onto the test plants. The plants were then transferred to the greenhouse until disease developed on the untreated control plants.
# [2] = test system: Septoria tritici (SEPTTR); assay: Speckled Leaf Blotch of Wheat one day protectant (1DP); conditions: wheat (Monon), sprayed to runoff, rate 200 ppm
# Method: Final treatment volumes were obtained by adding 0.1 percent aqueous Ethomeen T25 or 0.1 percent aqueous Spraymate X77+0.1 percent wt./vol. ammonium sulfate^+. Speckled Leaf Blotch of Wheat (Septoria tritici-[…]) Wheat (cultivar Monon) was grown in plastic pots (6.2 cm×8.75 cm) containing 50 percent mineral soil, 50 percent Metro-Mix 360 (W.R Grace and Co.) until the seedlings were 10-20 cm tall. These plants were then sprayed to runoff with the test compound at a rate of 200 ppm. After 24 hours the test plants were inoculated by spraying with an aqueous spore suspension of Septoria tritici ([…]). The plants were then transferred to a dew chamber for 24 hours, then to the greenhouse until disease developed on the untreated control plants.
# [3] = test system: Colletotricum lagenarium (COLLLA); assay: Cucumber Anthracnose one day protectant (1DP); conditions: cucumber (Bush Champion), sprayed to runoff, rate 200 ppm
# Method: Compound formulation was accomplished by dissolving Compound I, II, III, IV, V, or VI in water with serial dilutions to obtain desired rates. Final treatment volumes were obtained by adding 0.1 percent aqueous Ethomeen T25 or 0.1 percent aqueous Spraymate X77+0.1 percent wt./vol. ammonium sulfate^+.
# Cucumber Anthracnose (Colletotricum lagenarium; COLLLA) (1DP)
# Cucumber plants (variety Bush Champion) were grown in plastic pots containing 100 percent Metro-Mix 360 (W.R Grace and Co.) until the first true leaf was 20-80 percent expanded. Each pot contained 1 seedling. These plants were then sprayed to runoff with the test compound at a rate of 200 ppm. After 24 hours, the plants were sprayed with an aqueous spore suspension of Colletotricum lagenarium (COLLLA). The plants were then transferred to a dew chamber for 24 hours, then to a growth chamber until disease developed on the untreated control plants.
structure (smiles),measurement,setting,value
"NC[C@@H]1NC(=O)C(C(=O)CC(NC(=O)[C@@H](N)CO)(C(=O)O)C(=O)O)=C1O [Compound I, {[(2S)-2-amino-3-hydroxypropanoyl]amino}{2-[(5S)-5-(aminomethyl)-4-hydroxy-2-oxo-2,5-dihydro-1H-pyrrol-3-yl]-2-oxoethyl}malonic acid]",ERYSGT percent control of plant disease,[1],− (− = 0-29 percent control of plant disease)
same,SEPTTR percent control of plant disease,[2],++ (++ = 75-100 percent control of plant disease)
same,COLLLA percent control of plant disease,[3],− (− = 0-29 percent control of plant disease)
